Test results reported in PMC7466001 (Molecules, 2020).
Several values for one entry are separate records, joined by “and”; a condition that tells them apart may be missing. Equal entries are not always repeated. Where two headings read alike, the source gives them in different places.

Assays:
[1] = format: physicochemical
Method: All APT conjugates with DOTA, Bn-DOTA, and Bn-DOTAGA were radiolabeled with ^68Ga and ^177Lu, while APT conjugates with DTPA were only radiolabeled with ^68Ga. Synthesized radioconjugates were purified using the solid phase extraction (SPE) method before HPLC identification (Figure 2 and Figure 3) and further analyses.
Moreover, in the radiochromatogram of [^177Lu]Lu-DOTA-Bn-Et-APT ([^177Lu]Lu-6A) one can see a small additional signal (about 19.3 min) that is recognized as an early by-product of an interaction with solvent (EtOH) from the purification process. To verify the identity of all synthesized [^68Ga]Ga-radioconjugates in a non-carrier added scale, the non-radioactive stable gallium reference compounds (Ga-5A–Ga-9A and Ga-5A–Ga-5E) were synthesized and characterized by mass spectrometry. […]
The ^68Ga radiolabeling of the DOTA, Bn-DOTA, and Bn-DOTAGA conjugates of APT was performed according to the following procedure: 145 µL of a concentrated solution of [^68Ga]GaCl3 in 0.1 M HCl from the ^68Ge/^68Ga generator (4.9 ÷ 7.2 MBq) was added into the solution of 25 nmol of the selected conjugate in 200 µL of a 0.2 M acetate buffer (pH = 4.5) and heated for 5–10 min at 95 °C. […] The effectiveness of the purification was monitored by HPLC. […]

[2] = molecular target: T1, rat neurokinin 1 receptor (Rattus norvegicus, UniProt P14600); experiment: Competitive radioligand binding assay using rat brain homogenates, [3H]-[Sar9,Met(O2)11]-Substance P; conditions: for Ratio to APT: IC50 ratio to aprepitant, rat NK1R
T1 construct: from tissue; host or cells: rat brain (membrane preparation / homogenate)
T1 sequence (P14600 whole entry): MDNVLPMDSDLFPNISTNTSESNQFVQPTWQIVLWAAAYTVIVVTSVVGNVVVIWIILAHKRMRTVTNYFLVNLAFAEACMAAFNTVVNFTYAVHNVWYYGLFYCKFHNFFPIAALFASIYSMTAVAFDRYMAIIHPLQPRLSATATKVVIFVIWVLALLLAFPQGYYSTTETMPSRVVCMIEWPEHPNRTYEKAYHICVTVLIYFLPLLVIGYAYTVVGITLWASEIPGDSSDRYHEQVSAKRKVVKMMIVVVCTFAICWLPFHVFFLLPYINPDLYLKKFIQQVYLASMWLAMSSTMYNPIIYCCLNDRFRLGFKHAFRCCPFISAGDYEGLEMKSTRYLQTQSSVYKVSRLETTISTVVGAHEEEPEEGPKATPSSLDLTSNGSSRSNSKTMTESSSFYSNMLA
Description: An important consideration in the search of conjugate vectors for radionuclides is whether the functionalization of a high affinity ligand would not reduce the binding strength for a desired receptor. For the preliminary addressing of this issue in the case of our conjugates, we measured the affinity of compounds 5A–E (uncomplexed precursors) for the rat neurokinin-1 receptor. The human (hNK1R) and the rat (rNK1R) neurokinin 1 receptors differ in their sequences and pharmacology.
In brief, the membrane preparations obtained from rat brains were incubated at 25 °C for 60 min in the presence of a selective radioligand [^3H]-[Sar^9,Met(O2)^11]-Substance P obtained from PerkinElmer, (Waltham, MA, USA) and the increasing concentrations of the tested compounds (each concentration in duplicate). Non-specific binding was measured in the presence of 10 μM cold Substance P. The assay buffer was composed of 50 mM Tris-HCl (pH 7.4), 5 mM MnCl2, bovine serum albumin (BSA) (0.1 mg/mL), bacitracin (100 μg/mL), bestatin (30 μM), phenylmethylsulfonyl fluoride (30 μg/mL), and captopril (10 μM). The reaction total volume was 1 mL. With the incubation having been terminated, a rapid filtration through GF/B Whatman glass fiber strips was done with a M-24 Cell Harvester (Brandel, Gaithersburg, MD, USA). The filters were pre-soaked overnight with 0.5% polyethyleneimine so that the extent of non-specific binding could be minimized. After the filtration, the strips were dried, the filter discs were placed separately in 24-well plates, and a Betaplate Scint scintillation solution (PerkinElmer, Waltham, MA, USA) was added to each well. Radioactivity was measured with a MicroBeta LS scintillation counter, Trilux (PerkinElmer, Waltham, MA, USA). The data came from three independent experiments done in duplicate. The results are presented as IC50 with SEM.

[3] = Lipophilicity study, distribution in n-octanol/PBS (pH 7.40); format: physicochemical; conditions: n-octanol/PBS buffer pH 7.4
Description: In the course of the lipophilicity study, each isolated DOTA radioconjugate (determined as fully stable in HS) was examined for distribution in the system of n-octanol and a phosphate-buffered saline (PBS) buffer (pH = 7.4) to estimate the lipophilicity of the radiocomplex. The lipophilicity of each radioconjugate (logD), defined as the logarithm of the distribution coefficient (D) is based on the ratio of the radioactivity of the organic phase to the radioactivity of the aqueous phase. The stability of the studied radioconjugate was verified simultaneously during the experiment through the HPLC analysis of the aqueous phase. LogD values of [^68Ga]Ga-5A–[^68Ga]Ga-5E and [^177Lu]Lu-5A–[^177Lu]Lu-5E are listed below in Table 3.
The lipophilicity values of the radioconjugates (logD), expressed as the logarithm of its D in the n-octanol/PBS (pH 7.40) system, mimicking the physiological conditions (Product Properties Test Guidelines of the Office of Prevention, Pesticides and Toxic Substances 830.7550, 1996), were determined right after the SPE method purification and ethanol evaporation processes. A solution of isolated selected radioconjugate in 500 µL of a 0.1 M PBS buffer at pH 7.40 and 500 µL of n-octanol was vigorously stirred and centrifuged (13,500 rpm for 5 min) to separate the immiscible phases. The radioactivities of the aqueous and organic layers were determined using a well-type NaI(Tl) detector. The distribution coefficient was calculated as the ratio of the radioactivity of the radioconjugate in the organic phase to that in the aqueous phase. Each measurement was performed in triplicate and averaged. Simultaneously, the aqueous phases were analyzed by HPLC to check whether the studied radioconjugate remained intact during the experiment.

[4] = molecular target: human neurokinin 1 receptor; parameters: method as in PMID 9804700; conditions: human receptor binding; cited from earlier work
hNK1R = system: hNK1R; parameters: method as in PMID 19426690; conditions: cells expressing hNK1R; cited from earlier work
[5] = parameters: method as in PMID 15488686; conditions: aprepitant; cited from earlier work
rNK1R = system: rNK1R; parameters: method as in PMID 19426690; conditions: cells expressing rNK1R; cited from earlier work
[6] = uncomplexed precursors, rat brain homogenates, three independent experiments in duplicate, read-out: IC50 ± SEM

Compound	stability of the radioconjugate after radiosynthesis [1]	Ratio to APT [2]	IC50 [2, 6]	logD ([3]; 68Ga-radiolabeled conjugate)	logD ([3]; 177Lu-radiolabeled conjugate)	IC50 [4] [nM]	pKB (hNK1R)	IC50 ([2]; IC50, rat brain homogenates) [nM]	IC50 ([2]; IC50 ± SEM, uncomplexed precursors, rat brain homogenates, three independent experiments in duplicate) [nM]	logD [5]	pKB (rNK1R)
[^68Ga]Ga-DTPA-(Et-APT)2 [[^68Ga]Ga-9A]	immediately unstable	–	–	–	–	–	–	–	–	–	–
APT-Bu-DOTA [5C]	–	14.3	1800 ± 700 nM	0.290 ± 0.018	0.777 ± 0.021	–	–	–	–	–	–
APT-Ac-Et-DOTA [5E]	–	19.7	~2500 nM and 2500 nM	−0.231 ± 0.015	0.500 ± 0.017	–	–	–	–	–	–
APT-Et-DOTA [5A]	–	48.2	6200 ± 2600 nM	0.141 ± 0.019	0.708 ± 0.021	–	–	–	–	–	–
APT-Pr-DOTA [5B]	–	5.3	690 ± 70 nM	0.058 ± 0.016	0.654 ± 0.022	–	–	–	–	–	–
C[C@@H](O[C@H]1OCCN(Cc2n[nH]c(=O)[nH]2)[C@H]1c1ccc(F)cc1)c1cc(C(F)(F)F)cc(C(F)(F)F)c1 [Aprepitant, aprepitant]	–	1.0	–	–	–	0.09	8.7	128	130 ± 60	4.8	7.3
APT-Ac-HN-NH-DOTA [5D]	–	19.1	~2500 nM and 2500 nM	−1.012 ± 0.017	−0.401 ± 0.015	–	–	–	–	–	–
